In article PMC4806471, “Oral proteasome inhibitor with strong preclinical efficacy in myeloma models” (BMC Cancer, 2016):
pIC50: −log10 of the molar value.

How the values were obtained:
proteasome CT-L activity = assay: Binding kinetics: CT-L activity in RPMI8226 cells at different time points after 1-h pulse treatment; format: cell-based, human; conditions: CT-L activity in RPMI8226 cells after 1-h pulse treatment
RPMI8226 xenografts = assay: Anti-tumor activity of repeat dosing in RPMI8226 xenograft model; format: in vivo; conditions: 5 mg/kg oral, the day after the first treatment, NOD.SCID mice
Procedure: (§1) In vivo efficacy studies were performed in female BALB/c nude mice (8 weeks old) purchased from ORIENT Bio or female NOD.SCID mice (11–13 weeks old) purchased from HFK Bioscience. The animals were housed and maintained in a controlled environment including a 12 h light and 12 h dark cycle with automatic timers and received food and water ad libitum. All experiments were done under protocols approved by the Institutional Animal Care and Use Committee (IACUC). Moribund animals were sacrificed when necessary and animal carcasses were disposed of according to IACUC guidelines.
(§2) 1 × 10^7 MM.1S tumor cells in 0.1 ml of Dulbecco’s Phosphate-Buffered Saline (1:1 matrigel) were implanted subcutaneously into the right flank of female athymic nude mice. Tumor growth was monitored with calipers and mice were divided into homogeneous cohorts according to their initial tumor volume. […] The compounds were formulated in 0.5 % methyl cellulose and administered at the indicated doses and regimens by oral gavage at a dose volume of 10 mL/kg. […] The mean, standard deviation (SD), and standard error of the mean (SEM) were calculated for each experimental group, and statistical analyses were performed using standard two tailed Student’s t-test (significance defined as P ≤ 0.05).

MM.1S xenografts [1] = assay: Anti-tumor activity of repeat oral dosing in MM.1S xenograft model; format: in vivo, mice; conditions: 5 mg/kg oral twice a week
Procedure: as §1
as §2, with “mL/kg. For the RPMI8226 model, a total of 1 × 10^7 cells in 0.2 ml of PBS (1:1 matrigel) were implanted subcutaneously into the hind flank of female NOD.SCID mice. Whole blood was collected by cardiac puncture into tubes containing sodium heparin and cells were harvested by centrifugation. Blood cell pellets and tumor tissues were homogenized in lysis buffer (50 mM Tris–HCl, pH 8.0, 5 mM EDTA, 150 mM NaCl, 0.5 % Nonidet P-40, 0.5 mM phenylmethylsulfonyl fluoride, and 0.5 mM dithiothreitol) for 30 min at 4 °C. The lysates were centrifuged at 14,000 × g for 30 min, and the supernatants were collected as whole blood cell extracts and tumor cell extracts, respectively, for pharmacodynamic analysis.” for “mL/kg.”

20S proteasome C-L, β1 = target: T1, 20S proteasome C-L, β1 (Homo sapiens, UniProt P28072+Q99436); assay: In vitro 20S proteasome inhibition in RPMI8226 cell lysate, Z-Leu-Leu-Glu-AMC substrate; format: biochemical; conditions: RPMI8226 cellular lysates, 1 h at 37 °C
T1 construct: endogenous in cells; host or cells: RPMI8226 (human multiple myeloma)
Procedure: (§3) Pomalidomide was purchased from Tokyo Chemical Industry.
(§4) RPMI8226 cell lysate was used for the in vitro proteasome inhibition assay. Cells were washed with PBS and resuspended in 20 mM Tris–HCl, pH 7.5. Then, cells were lysed on ice by dounce homogenization and the supernatants were collected by centrifugation. The assay was conducted in 96-well plates by incubating 2 μg of lysates with serial dilutions of a test compound and 20 μM of substrate at 37 °C for 1 h. After incubation, production of hydrolyzed AMC groups was measured using a FlexStation II Fluorometer (Molecular Devices) or using a Spectra MAX Gemini Fluorometer (Molecular Devices) with an excitation filter of 380 nm and an emission filter of 460 nm.

20S proteasome T-L, β2 = target: T2, 20S proteasome T-L, β2 (Homo sapiens, UniProt Q99436); assay: In vitro 20S proteasome inhibition in RPMI8226 cell lysate, Z-Ala-Arg-Arg-AMC substrate; format: biochemical; conditions: RPMI8226 cellular lysates, 1 h at 37 °C
T2 sequence (Q99436 44-277): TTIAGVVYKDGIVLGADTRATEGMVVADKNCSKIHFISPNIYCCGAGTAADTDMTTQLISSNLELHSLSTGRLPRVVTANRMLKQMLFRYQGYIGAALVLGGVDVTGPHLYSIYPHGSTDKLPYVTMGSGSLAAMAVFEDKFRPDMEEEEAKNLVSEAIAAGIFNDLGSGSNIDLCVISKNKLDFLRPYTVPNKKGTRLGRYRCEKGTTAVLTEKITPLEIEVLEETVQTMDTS
Procedure: as §3, §4

[2] = tested on: CD138+ cells from bone marrow of MM patients; assay: Viability of primary myeloma cells from MM patients (CellTiter-Glo); format: cell-based, human; conditions: patient 14 sample (bortezomib- and ixazomib-refractory), 48 h, % over DMSO control
Procedure: (§5) Primary MM cells were retrieved from bone marrow of patients and were enriched by Ficoll density centrifugation to a purity of >90 %, as necessary. Purity was assessed by cytomorphology on stained samples. CD138^+ cells were collected using magnetic beads (Miltenyi Biotec) and plated at a density of 8 × 10^4 cells per well onto 96-well plates in RPMI-1640 (WELGENE) containing 10 % FBS (WELGENE), 1 % penicillin-streptomycin-amphotericin B (Gibco), and 2 mM L-glutamine. Cells were then treated with a serial dilution of compound in medium containing a final concentration of 0.2 % DMSO. Cultures were incubated for 48 h and cells were then assayed for viability using the CellTiter-Glo Luminescent Cell Viability Assay kit (Promega).

[3] = Cytotoxicity in normal PBMC from healthy donors (CellTiter-Glo); format: cell-based; conditions: human, 10,000 nM, read-out: Viability of normal PBMC at highest concentration tested
Procedure: as §5
Peripheral blood mononuclear cells (PBMCs) isolated from the heparinized blood samples of normal healthy donors were also plated and processed as described above.

MM.1S xenografts [4] = assay: MM.1S xenograft study of LC53-0151 with or without pomalidomide; format: in vivo, mice; conditions: pomalidomide 2.5 mg/kg oral 5 days per week, 3 weeks; not statistically significant
Procedure: as §1
as §2, with “0.05). […]” for “0.05).”

## CC(C)C[C@H](NC(=O)[C@H](Cc1ccccc1)NC(=O)c1cnccn1)B(O)O [Bortezomib]
Proteasome CT-L activity
  Binding kinetics: reversible

## CC(C)C[C@H](NC(=O)CNC(=O)c1cc(Cl)ccc1Cl)B(O)O [Ixazomib]
RPMI8226 xenografts
  Mortality in efficacy model: all 8 mice died or were euthanized
MM.1S xenografts [1]; day 8
  Tumor volume, % of start tumor volume (maximum regression): 36%
MM.1S xenografts [1]; day 15
  Tumor growth inhibition compared to vehicle control: 72%
  Tumor volume, % of start tumor volume: 58%
20S proteasome C-L, β1
  pIC50: 8.15 to 8.22
20S proteasome T-L, β2
  pIC50: < 5.00
[2]
  Viability at 12.5 nM: did not show any effect on viability
Proteasome CT-L activity
  Binding kinetics: reversible
[3]
  viability at 48 h, 10000 nM: > 50%

## CC(C)C[C@H](NC(=O)[C@H](CCc1ccccc1)NC(=O)CN1CCOCC1)C(=O)N[C@@H](Cc1ccccc1)C(=O)N[C@@H](CC(C)C)C(=O)[C@@]1(C)CO1 [Carfilzomib]
Proteasome CT-L activity
  Binding kinetics: irreversible

## Nc1cccc2c1C(=O)N(C1CCC(=O)NC1=O)C2=O (stereo not drawn) [pomalidomide, Pomalidomide]
MM.1S xenografts [4]
  Reduction of tumor volume compared to vehicle-treated mice: 10%
